For the assay, the system named is MV-4-11 cells. In words: Gene expression microarray analysis (Affymetrix PrimeView) and GSEA. The assay is classed as cell-based, human. Set-up: RFU PODN (11730768_x_at) / Fold change /veh PODN (11730768_x_at) / RFU LINC00158 (11744669_a_at) / Fold change /veh LINC00158 (11744669_a_at) / RFU DUSP10 (11751237_a_at) / Fold change /veh DUSP10 (11751237_a_at) / RFU ID3 (11757404_x_at) / Fold change /veh ID3 (11757404_x_at) / RFU PLEKHG5 (11737974_s_at) / Fold change /veh PLEKHG5 (11737974_s_at) / RFU LRRC4B (11730491_at) / Fold change /veh LRRC4B (11730491_at) / RFU GIMAP4 (11747438_a_at) / Fold change /veh GIMAP4 (11747438_a_at) / RFU KRT8 (11758183_x_at) / Fold change /veh KRT8 (11758183_x_at) / RFU CNN1 (11734310_a_at) / Fold change /veh CNN1 (11734310_a_at) / RFU VPS37D (11726825_at) / Fold change /veh VPS37D (11726825_at) / RFU C10orf10 (11716522_x_at) / Fold change /veh C10orf10 (11716522_x_at) / RFU KIR2DL2 /// KIR2DL4 /// KIR2DL5A /// KIR2DL5B /// KIR2DS1 /// KIR2DS2 /// KIR2DS3 /// KIR2DS4 /// KIR3DL3 /// KIR3DL3 /// KIR3DS1 (11738374_at) / Fold change /veh KIR2DL2 /// KIR2DL4 /// KIR2DL5A /// KIR2DL5B /// KIR2DS1 /// KIR2DS2 /// KIR2DS3 /// KIR2DS4 /// KIR3DL3 /// KIR3DL3 /// KIR3DS1 (11738374_at) / RFU C1QL1 (11718748_at) / Fold change /veh C1QL1 (11718748_at) / RFU TMPRSS4 (11747572_a_at) / Fold change /veh TMPRSS4 (11747572_a_at) / RFU HAMP (11756126_x_at) / Fold change /veh HAMP (11756126_x_at) / RFU RNFT2 (11725882_a_at) / Fold change /veh RNFT2 (11725882_a_at) / RFU NR4A2 (11747474_a_at) / Fold change /veh NR4A2 (11747474_a_at) / RFU ABCC12 (11746883_a_at) / Fold change /veh ABCC12 (11746883_a_at) / RFU TMEM136 (11760407_x_at) / Fold change /veh TMEM136 (11760407_x_at) / RFU CLDN22 /// WWC2 (11732394_at) / Fold change /veh CLDN22 /// WWC2 (11732394_at) / RFU HLA-DPB1 (11760878_x_at) / Fold change /veh HLA-DPB1 (11760878_x_at) / RFU SPINT1 (11716480_a_at) / Fold change /veh SPINT1 (11716480_a_at) / RFU GAP43 (11754022_s_at) / Fold change /veh GAP43 (11754022_s_at) / RFU A4GNT (11735810_at) / Fold change /veh A4GNT (11735810_at) / RFU PRB3 (11715151_x_at) / Fold change /veh PRB3 (11715151_x_at) / RFU TUBB4B (11761932_at) / Fold change /veh TUBB4B (11761932_at) / RFU CAPN14 (11732068_a_at) / Fold change /veh CAPN14 (11732068_a_at) / RFU TMCC2 (11721928_a_at) / Fold change /veh TMCC2 (11721928_a_at) / RFU IRGQ (11745062_a_at) / Fold change /veh IRGQ (11745062_a_at) / RFU FAM174B (11720279_a_at) / Fold change /veh FAM174B (11720279_a_at) / RFU TMPRSS4 (11748680_a_at) / Fold change /veh TMPRSS4 (11748680_a_at) / RFU FAM212B (11763350_a_at) / Fold change /veh FAM212B (11763350_a_at) / RFU PLEKHG5 (11743358_a_at) / Fold change /veh PLEKHG5 (11743358_a_at) / RFU ZSCAN30 (11745921_a_at) / Fold change /veh ZSCAN30 (11745921_a_at) / RFU CMKLR1 (11741424_a_at) / Fold change /veh CMKLR1 (11741424_a_at) / RFU LOC101060620 /// MAPK8IP1 (11723275_at) / Fold change /veh LOC101060620 /// MAPK8IP1 (11723275_at) / RFU SPTSSB (11747773_x_at) / Fold change /veh SPTSSB (11747773_x_at) / RFU PRSS12 (11739890_at) / Fold change /veh PRSS12 (11739890_at) / RFU BIN1 (11741810_x_at) / Fold change /veh BIN1 (11741810_x_at) / RFU WNT11 (11732464_a_at) / Fold change /veh WNT11 (11732464_a_at) / RFU C10orf10 (11716521_a_at) / Fold change /veh C10orf10 (11716521_a_at) / RFU C5orf56 (11738089_at) / Fold change /veh C5orf56 (11738089_at) / RFU CYB561 (11721691_x_at) / Fold change /veh CYB561 (11721691_x_at) / RFU ANKRD19P (11752326_a_at) / Fold change /veh ANKRD19P (11752326_a_at) / RFU OR2T12 /// OR2T33 /// OR2T8 (11738714_s_at) / Fold change /veh OR2T12 /// OR2T33 /// OR2T8 (11738714_s_at) / RFU VCAN (11748164_a_at) / Fold change /veh VCAN (11748164_a_at) / RFU JSRP1 (11732532_at) / Fold change /veh JSRP1 (11732532_at) / RFU KRTAP10-11 (11738290_x_at) / Fold change /veh KRTAP10-11 (11738290_x_at) / RFU MYO3A (11730013_a_at) / Fold change /veh MYO3A (11730013_a_at) / RFU EBF3 (11725865_a_at) / Fold change /veh EBF3 (11725865_a_at) / RFU CAMK2N1 (11719241_x_at) / Fold change /veh CAMK2N1 (11719241_x_at) / RFU C5orf56 (11738088_a_at) / Fold change /veh C5orf56 (11738088_a_at) / RFU OLFML3 (11715873_a_at) / Fold change /veh OLFML3 (11715873_a_at) / RFU LOC100653217 /// NTM (11731650_a_at) / Fold change /veh LOC100653217 /// NTM (11731650_a_at) / RFU MAPK11 (11762145_a_at) / Fold change /veh MAPK11 (11762145_a_at) / RFU FIZ1 (11724087_x_at) / Fold change /veh FIZ1 (11724087_x_at) / RFU OASL (11726364_x_at) / Fold change /veh OASL (11726364_x_at) / RFU SOX15 (11748057_x_at) / Fold change /veh SOX15 (11748057_x_at) / RFU CD79A (11719716_a_at) / Fold change /veh CD79A (11719716_a_at) / RFU HIST1H1D (11736915_at) / Fold change /veh HIST1H1D (11736915_at) / RFU CASKIN2 (11723855_a_at) / Fold change /veh CASKIN2 (11723855_a_at) / RFU LOC730098 (11760151_x_at) / Fold change /veh LOC730098 (11760151_x_at) / RFU OR4N2 (11742367_at) / Fold change /veh OR4N2 (11742367_at) / RFU PRRT2 (11749266_a_at) / Fold change /veh PRRT2 (11749266_a_at) / RFU SNX32 (11753110_a_at) / Fold change /veh SNX32 (11753110_a_at) / RFU CDHR5 (11726645_a_at) / Fold change /veh CDHR5 (11726645_a_at) / RFU RCAN1 (11760418_a_at) / Fold change /veh RCAN1 (11760418_a_at) / RFU FAM167A (11723789_a_at) / Fold change /veh FAM167A (11723789_a_at) / RFU FAM26E (11764081_at) / Fold change /veh FAM26E (11764081_at) / RFU ISYNA1 (11749810_s_at) / Fold change /veh ISYNA1 (11749810_s_at) / RFU ACY1 (11761880_at) / Fold change /veh ACY1 (11761880_at) / RFU 11764098_at / Fold change /veh 11764098_at / RFU SAMD14 (11745864_x_at) / Fold change /veh SAMD14 (11745864_x_at) / RFU NPB (11741838_a_at) / Fold change /veh NPB (11741838_a_at) / RFU TMPRSS6 (11731388_a_at) / Fold change /veh TMPRSS6 (11731388_a_at) / RFU KRTAP10-2 (11738614_at) / Fold change /veh KRTAP10-2 (11738614_at) / RFU ARHGAP8 /// PRR5-ARHGAP8 (11727945_x_at) / Fold change /veh ARHGAP8 /// PRR5-ARHGAP8 (11727945_x_at) / RFU KRTAP5-7 /// NADSYN1 (11734609_at) / Fold change /veh KRTAP5-7 /// NADSYN1 (11734609_at) / RFU RASL12 (11751679_a_at) / Fold change /veh RASL12 (11751679_a_at) / RFU CDKN2B (11736163_a_at) / Fold change /veh CDKN2B (11736163_a_at) / RFU PRF1 (11729649_at) / Fold change /veh PRF1 (11729649_at) / RFU, ZNF638 /// ZNF638-IT1 / Fold change vs veh, ZNF638 /// ZNF638-IT1 / RFU, PANK3 / Fold change vs veh, PANK3 / RFU, SH3YL1 / Fold change vs veh, SH3YL1 / RFU, ZEB2 / Fold change vs veh, ZEB2 / RFU, NRIP1 / Fold change vs veh, NRIP1 / RFU, PTTG1IP / Fold change vs veh, PTTG1IP / RFU, CAPN2 / Fold change vs veh, CAPN2 / RFU, MED14 / Fold change vs veh, MED14 / RFU, SNORA58 / Fold change vs veh, SNORA58 / RFU, C1orf63 / Fold change vs veh, C1orf63 / RFU, LRRFIP1 / Fold change vs veh, LRRFIP1 / RFU, NDUFAF7 / Fold change vs veh, NDUFAF7 / RFU, SLC12A2 / Fold change vs veh, SLC12A2 / RFU, IBTK / Fold change vs veh, IBTK / RFU, ESF1 / Fold change vs veh, ESF1 / Fold change vs veh, TMEM50B / RFU, TAOK1 / Fold change vs veh, TAOK1 / RFU, ACBD3 / Fold change vs veh, ACBD3 / RFU, TMA16 / Fold change vs veh, TMA16 / RFU, RWDD3 / Fold change vs veh, RWDD3 / RFU, BCAT1 / Fold change vs veh, BCAT1 / RFU, EDEM3 / Fold change vs veh, EDEM3 / RFU, TMEM33 / Fold change vs veh, TMEM33 / RFU, WDR75 / Fold change vs veh, WDR75 / RFU, AHCTF1 / Fold change vs veh, AHCTF1 / RFU, TFRC / Fold change vs veh, TFRC / RFU, ZDHHC17 / Fold change vs veh, ZDHHC17 / RFU, NOM1 / Fold change vs veh, NOM1 / RFU, ARL8B / Fold change vs veh, ARL8B / RFU, ZBTB11 / Fold change vs veh, ZBTB11 / RFU, TAMM41 / Fold change vs veh, TAMM41 / RFU, KIAA1704 /// LOC100996395 / Fold change vs veh, KIAA1704 /// LOC100996395 / RFU, ING1 / Fold change vs veh, ING1 / RFU, TRMT61B / Fold change vs veh, TRMT61B / RFU, FUBP3 / Fold change vs veh, FUBP3 / RFU, TP53 / Fold change vs veh, TP53 / RFU, TNKS2 / Fold change vs veh, TNKS2 / RFU, ZFP14 / Fold change vs veh, ZFP14 / RFU, ACTR2 / Fold change vs veh, ACTR2 / RFU, PPP3R1 / Fold change vs veh, PPP3R1 / RFU, PIK3R1 / Fold change vs veh, PIK3R1 / RFU, HNRNPA1 / Fold change vs veh, HNRNPA1 / RFU, RNF170 / Fold change vs veh, RNF170 / RFU, ZNF28 / Fold change vs veh, ZNF28 / RFU, RNGTT / Fold change vs veh, RNGTT / RFU, OGT / Fold change vs veh, OGT / RFU, BRD1 / Fold change vs veh, BRD1 / RFU, MARS / Fold change vs veh, MARS / RFU, ZNF655 / Fold change vs veh, ZNF655 / RFU, FAHD1 / Fold change vs veh, FAHD1 / RFU, BDP1 / Fold change vs veh, BDP1 / RFU, LRRCC1 / Fold change vs veh, LRRCC1 / RFU, ARID1A / Fold change vs veh, ARID1A / RFU, ZNF146 / Fold change vs veh, ZNF146 / RFU, ZNF330 / Fold change vs veh, ZNF330 / RFU, GPN3 / Fold change vs veh, GPN3 / RFU, C9orf123 / Fold change vs veh, C9orf123 / RFU, N4BP2L2 / Fold change vs veh, N4BP2L2 / RFU, ARFIP1 / Fold change vs veh, ARFIP1 / RFU, FAM179B / Fold change vs veh, FAM179B / RFU, BCL10 / Fold change vs veh, BCL10 / RFU, UHRF1BP1L / Fold change vs veh, UHRF1BP1L / RFU, BET1 / Fold change vs veh, BET1 / RFU, CNOT2 / Fold change vs veh, CNOT2 / RFU, ZNF268 / Fold change vs veh, ZNF268 / Fold change vs veh, ZNF507 / RFU, DGCR2 / Fold change vs veh, DGCR2 / RFU, WDSUB1 / Fold change vs veh, WDSUB1 / Fold change vs veh, HSP90B1 /// MIR3652 / RFU, ADSS / Fold change vs veh, ADSS / RFU, GK / Fold change vs veh, GK / RFU, ZNF148 / Fold change vs veh, ZNF148 / RFU, TAF9 / Fold change vs veh, TAF9 / RFU, SLC1A5 / Fold change vs veh, SLC1A5 / RFU, SLMO2 / Fold change vs veh, SLMO2 / RFU, ABCC4 / Fold change vs veh, ABCC4 / RFU, LOC101060439 /// RAP1B / Fold change vs veh, LOC101060439 /// RAP1B / RFU, RFX7 / Fold change vs veh, RFX7 / RFU, GTPBP10 / Fold change vs veh, GTPBP10 / RFU, CNEP1R1 / Fold change vs veh, CNEP1R1 / RFU, BIVM-ERCC5 /// ERCC5 / Fold change vs veh, BIVM-ERCC5 /// ERCC5 / RFU, ILF3 / Fold change vs veh, ILF3 / RFU 11762660_at / Fold change /veh 11762660_at / RFU VCAN (11757783_s_at) / Fold change /veh VCAN (11757783_s_at) / RFU DDX43 (11728927_at) / Fold change /veh DDX43 (11728927_at) / RFU KRT8 (11758188_x_at) / Fold change /veh KRT8 (11758188_x_at) / RFU NKD1 (11759106_at) / Fold change /veh NKD1 (11759106_at) / RFU SRD5A1 (11742802_a_at) / Fold change /veh SRD5A1 (11742802_a_at) / RFU TPSAB1 /// TPSB2 (11721975_s_at) / Fold change /veh TPSAB1 /// TPSB2 (11721975_s_at) / RFU GSTM3 (11746129_a_at) / Fold change /veh GSTM3 (11746129_a_at) / RFU IL23R (11737362_x_at) / Fold change /veh IL23R (11737362_x_at) / RFU TMEM51 (11727254_a_at) / Fold change /veh TMEM51 (11727254_a_at) / RFU PIWIL2 (11732686_x_at) / Fold change /veh PIWIL2 (11732686_x_at) / RFU ORM1 (11744905_x_at) / Fold change /veh ORM1 (11744905_x_at) / RFU CCDC152 (11743942_at) / Fold change /veh CCDC152 (11743942_at) / RFU ECM1 (11717891_a_at) / Fold change /veh ECM1 (11717891_a_at) / RFU IL23R (11748794_a_at) / Fold change /veh IL23R (11748794_a_at) / RFU TNFAIP8L3 (11732012_x_at) / Fold change /veh TNFAIP8L3 (11732012_x_at) / RFU MBOAT4 (11741988_at) / Fold change /veh MBOAT4 (11741988_at) / RFU 11764193_at / Fold change /veh 11764193_at / RFU TMEM53 (11763286_at) / Fold change /veh TMEM53 (11763286_at) / RFU MAGEB2 (11727129_at) / Fold change /veh MAGEB2 (11727129_at) / RFU TMEM200A (11744735_a_at) / Fold change /veh TMEM200A (11744735_a_at) / RFU CCDC152 (11751479_a_at) / Fold change /veh CCDC152 (11751479_a_at) / RFU FAM211A (11726209_a_at) / Fold change /veh FAM211A (11726209_a_at) / RFU RGS16 (11746705_a_at) / Fold change /veh RGS16 (11746705_a_at) / RFU VCAN (11755009_s_at) / Fold change /veh VCAN (11755009_s_at) / RFU RHOB (11743442_s_at) / Fold change /veh RHOB (11743442_s_at) / RFU RGS16 (11720943_a_at) / Fold change /veh RGS16 (11720943_a_at) / RFU RGS16 (11720944_at) / Fold change /veh RGS16 (11720944_at) / RFU, VPS4B / Fold change vs veh, VPS4B / RFU, CREB1 / Fold change vs veh, CREB1 / RFU, DNAJC13 / Fold change vs veh, DNAJC13 / RFU, GNAQ / Fold change vs veh, GNAQ / RFU, CDK5R1 / Fold change vs veh, CDK5R1 / RFU, ZRANB3 / Fold change vs veh, ZRANB3 / RFU, CUL4A / Fold change vs veh, CUL4A / RFU, CCNY / Fold change vs veh, CCNY / RFU, UFL1 / Fold change vs veh, UFL1 / RFU, COG3 / Fold change vs veh, COG3 / RFU, DIAPH2 / Fold change vs veh, DIAPH2 / RFU, SKA2 / Fold change vs veh, SKA2 / RFU, AFF3 / Fold change vs veh, AFF3 / RFU, LMF1 / Fold change vs veh, LMF1 / RFU, IPO11 / Fold change vs veh, IPO11 / RFU, DFFB / Fold change vs veh, DFFB / RFU, FOXP1 / Fold change vs veh, FOXP1 / RFU, CARD8 / Fold change vs veh, CARD8 / RFU, STRN3 / Fold change vs veh, STRN3 / RFU, ADK / Fold change vs veh, ADK / RFU, RASSF2 / Fold change vs veh, RASSF2 / RFU, WIPF1 / Fold change vs veh, WIPF1 / RFU, LARP1B / Fold change vs veh, LARP1B / RFU, RASA1 / Fold change vs veh, RASA1 / RFU, RB1 / Fold change vs veh, RB1 / RFU, PPFIA1 / Fold change vs veh, PPFIA1 / RFU, MAT2A / Fold change vs veh, MAT2A / RFU, CCT5 / Fold change vs veh, CCT5 / RFU, WDR92 / Fold change vs veh, WDR92 / RFU, CUX1 / Fold change vs veh, CUX1 / RFU, TTC7A / Fold change vs veh, TTC7A / RFU, TMEM135 / Fold change vs veh, TMEM135 / RFU, DEPTOR / Fold change vs veh, DEPTOR / RFU, CPM / Fold change vs veh, CPM / RFU, DNAJB6 / Fold change vs veh, DNAJB6 / RFU, CACNA2D3 / Fold change vs veh, CACNA2D3 / RFU, DTX4 / Fold change vs veh, DTX4 / RFU, TFCP2 / Fold change vs veh, TFCP2 / RFU, GMCL1 /// GMCL1P1 / Fold change vs veh, GMCL1 /// GMCL1P1 / RFU, AEBP2 / Fold change vs veh, AEBP2 / RFU, SNHG1 /// SNORD22 /// SNORD25 /// SNORD26 /// SNORD27 /// SNORD28 /// SNORD29 /// SNORD31 / Fold change vs veh, SNHG1 /// SNORD22 /// SNORD25 /// SNORD26 /// SNORD27 /// SNORD28 /// SNORD29 /// SNORD31 / Fold change (Aza/veh), C12orf56 (ProbeSet 11735607_a_at) / Fold change (ACY-1035/veh), C12orf56 (ProbeSet 11735607_a_at) / Fold change (Aza/veh), FGFR1OP (ProbeSet 11751329_s_at) / Fold change (ACY-1035/veh), FGFR1OP (ProbeSet 11751329_s_at) / Fold change (Aza/veh), VPS36 (ProbeSet 11739960_a_at) / Fold change (ACY-1035/veh), VPS36 (ProbeSet 11739960_a_at) / RFU SYPL1 (11715823_x_at) / Fold change /veh SYPL1 (11715823_x_at) / RFU IGFBP7 (11715501_s_at) / Fold change /veh IGFBP7 (11715501_s_at) / RFU REEP3 (11722064_at) / Fold change /veh REEP3 (11722064_at) / RFU IGLL1 (11728026_x_at) / Fold change /veh IGLL1 (11728026_x_at): dose or concentration left out as unconfirmed. To be noted: ProbeSet 11753616_s_at; LIST B.

Molecules are shown by their SMILES.

With `Nc1ccc(-c2cccs2)cc1NC(=O)c1ccc2c(c1)cc(C1CC1)n2CCN1CCOCC1` [ACY-1035], the “Fold change vs veh, ARL8B” value was 0.90.

These data come from publication PMC5218480 (PLoS ONE, 2017).
